For one test, the target named is T1, human Edg-4 (Homo sapiens, UniProt Q9HBW0).
T1 construct: expressed in transfected cells
The test is described as follows: Ca2+ responses (Fura-2) in RH7777 cells expressing Edg-4 (stable or transient). It is filed as cell-based. Particulars: 100 nM LPA 18:1 and 1 μM DGPP 8:0. The source says: RH7777 cells, stably expressing human Edg-4, were kindly provided by Dr. Kevin Lynch (University of Virginia, Charlottesville, Va.). Flag-tagged cDNA's encoding human Edg-4 and -7 inserted into the pCDNA3 expression plasmid (Invitrogen, Carlsbad, Calif.), were a generous gift from Dr. Junken Aoki (University of Tokyo, Tokyo, Japan). RH7777 and NIH3T3 cells were obtained from the American Type Culture Collection (Manassas, Va.). HEY cells were provided by Dr. Lisa Jennings (University of Tennessee, Memphis). All cell lines were maintained in Dulbecco's Modified Eagle's Medium (DMEM) containing 10% FBS and 2 mM glutamine. Oocytes were obtained from adult Xenopus laevis frogs as previously described (Tigyi et al., 1999).
(§1) RH7777 cells were transfected with the cDNA constructs encoding human Edg-2, Edg-4, or Edg-7 and then were subcloned into the pCDNA3 expression vector using the Cytofectene transfection reagent according to the manufacturers' protocol. Transfected cells were selected in DMEM containing 10% FBS and 1 mg/ml geneticin. Resistant cells were collected and subcloned by limiting dilution. The resulting clones were then screened using functional assays and RT-PCR analysis. Data are representative of three individual clones.
RH7777 cells were plated on polylysine-coated glass coverslips (Bellco, Vineland, N.J.) one day prior to transfection. The following day, cells were transfected overnight (16-18 hr) with 1 μg of plasmid DNA mixed with 6 μl of Cytofectene. The cells were then rinsed twice with DMEM and cultured in DMEM containing 10% FBS. The next day, the cells were rinsed with DMEM and serum was withdrawn for a minimum of 2 hr prior to monitoring intracellular Ca^2+.

In another test the target is T2, human Edg-7 (Homo sapiens, UniProt Q9UBY5).
T2 construct: Flag; expressed in transfected cells
T2 sequence (Q9UBY5 1-353): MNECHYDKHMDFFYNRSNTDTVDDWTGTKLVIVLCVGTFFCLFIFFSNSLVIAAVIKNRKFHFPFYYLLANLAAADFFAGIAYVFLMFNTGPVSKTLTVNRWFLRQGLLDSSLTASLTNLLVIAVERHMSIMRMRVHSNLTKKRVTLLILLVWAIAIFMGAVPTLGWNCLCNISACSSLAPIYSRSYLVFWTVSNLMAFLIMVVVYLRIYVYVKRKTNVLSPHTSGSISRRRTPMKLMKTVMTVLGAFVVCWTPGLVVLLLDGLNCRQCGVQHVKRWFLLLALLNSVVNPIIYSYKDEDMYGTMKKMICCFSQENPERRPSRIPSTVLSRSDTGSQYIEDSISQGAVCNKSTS
As to the kind of experiment: Ca2+ responses (Fura-2) in RH7777 cells expressing Edg-7. It is filed as cell-based. How it is done:
as §1

The subject of another test is HEY ovarian cancer cells. The test is described as follows: Ca2+ responses in HEY ovarian cancer cells. Type of test: cell-based. As to conditions: 100 nM LPA 18:1 mixed with 1 μM lipid. An excerpt:
Likewise, PA 8:0 inhibited the Ca^2+ response to 6% of control, whereas PA 18:1 had no effect. HEY express mRNA transcripts for Edg-1, -2, -5, -7 receptors (FIG. 34C).

Test [1] has as its system NIH3T3 cells. How it is done: Data points from the intracellular Ca^2+ measurements represent the total peak area of the Ca^2+ transients elicited, as determined by the FLWinLab software (Perkin-Elmer, Wellesley, Mass.). Data points represent the average of at least 3 measurements±standard deviation. The significance of the data points was determined using the students t-test and values were considered significant at p<0.05.
The effect of DGPP 8:0 on LPA-elicited responses was also examined in mammalian systems that endogenously express LPA receptors. NIH3T3 cells were screened by RT-PCR for the presence of mRNA for the Edg and PSP24 receptors.

In another test the target is PSP24 PLGFR (Xenopus laevis, UniProt P79945). The test is described as follows: Xenopus oocyte assay: LPA-induced oscillatory chloride currents (two-electrode voltage clamp). Type of test: cell-based. How it is done: Xenopus oocytes which endogenously express PSP24 PLGFR were used to screen the newly designed and synthesized compounds for their LPA inhibitory activity.
Sequence of PSP24 PLGFR (P79945 whole entry): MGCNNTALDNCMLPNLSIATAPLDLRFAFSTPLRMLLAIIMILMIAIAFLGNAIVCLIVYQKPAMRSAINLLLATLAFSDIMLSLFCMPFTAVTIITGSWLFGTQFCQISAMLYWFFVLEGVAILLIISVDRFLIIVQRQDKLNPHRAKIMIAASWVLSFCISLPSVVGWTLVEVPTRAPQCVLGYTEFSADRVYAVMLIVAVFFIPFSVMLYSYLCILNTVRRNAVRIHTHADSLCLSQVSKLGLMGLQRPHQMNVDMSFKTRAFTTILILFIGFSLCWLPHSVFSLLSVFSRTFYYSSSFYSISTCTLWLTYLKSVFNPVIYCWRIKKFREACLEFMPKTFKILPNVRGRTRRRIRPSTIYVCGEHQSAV
(§2) Oocytes were obtained from xylazine-anesthetized adult Xenopus laevis frogs (Carolina Scientific, Burlington, N.C.) under aseptic conditions and prepared for experiment. […] Oocytes were kept in Barth's solution in an incubator between 17-20° C. and were used for 2-7 days after isolation.
Electrophysiological recordings were carried out using a standard two-electrode voltage-clamp amplifier holding the membrane potential at −60 mV (GeneClamp 500, Axon Instruments, Calif.). […] Membrane currents were recorded with a NIC-310 digital oscilloscope (Nicolet, Madison, Wis.). Applications were made at intervals of 15 mins (minimum) to allow for the appropriate washout and recovery from desensitization.
as §2
Electrophysiological recordings were carried out using a standard two-electrode voltage-clamp amplifier holding the membrane potential at −60 mV (GeneClamp 500, Axon Instruments, CA). […] Membrane currents were recorded with a NIC-310 digital oscilloscope (Nicolet, Madison, Wis.). Applications were made at intervals of 15 mins (minimum) to allow for the appropriate washout and recovery from desensitization.

The next test addresses T3, human Edg-2 (Homo sapiens, UniProt Q92633).
T3 construct: expressed in transfected cells
The test is described as follows: Ca2+ responses (Fura-2) in RH7777 cells expressing Edg-2. It is filed as cell-based. Here is the method:
as §1

Test [2] has as its system G-protein coupled receptors for acetycholine. As to conditions: oocytes injected with rat brain polyA+ mRNA. An excerpt:
(§3) To show the specificity of DGPP 8:0 for the LPA receptors expressed in the oocyte, the expression of neurotransmitter receptors was induced by the injection of polyA+ mRNA from rat brain.

Test [3] relates to G-protein coupled receptors for serotonin. As to conditions: oocytes injected with rat brain polyA+ mRNA.
Description: as §3

Test [4] concerns NIH3T3 cells. As to the kind of experiment: LPA-elicited proliferation of NIH3T3 cells (cell counting). It is filed as cell-based. Here is the method: Proliferation of NIH3T3 cells was assessed by direct cell counting as previously described (Tigyi et al., 1999). NIH3T3 cells were plated in 24-well plates at a density of 10,000 cells/well, in DMEM containing 10% FBS. The following day, the cells were rinsed and serum starved in DMEM for 6 hr. Lipids were then added for 24 hr. Cell numbers were determined by counting in a Coulter counter (Coulter Electronics, Hialeah, Fla.).

Setting [5] is: 10-fold excess: 100 nM LPA 18:1 and 1 μM DGPP 8:0.
Where [6] appears, read: LPA constant at its EC50 (250 nM LPA 18:1), read-out: IC50, inhibition of LPA-elicited Ca2+ responses.

Each structure is given as a SMILES string.

T3 sequence (Q92633 whole entry): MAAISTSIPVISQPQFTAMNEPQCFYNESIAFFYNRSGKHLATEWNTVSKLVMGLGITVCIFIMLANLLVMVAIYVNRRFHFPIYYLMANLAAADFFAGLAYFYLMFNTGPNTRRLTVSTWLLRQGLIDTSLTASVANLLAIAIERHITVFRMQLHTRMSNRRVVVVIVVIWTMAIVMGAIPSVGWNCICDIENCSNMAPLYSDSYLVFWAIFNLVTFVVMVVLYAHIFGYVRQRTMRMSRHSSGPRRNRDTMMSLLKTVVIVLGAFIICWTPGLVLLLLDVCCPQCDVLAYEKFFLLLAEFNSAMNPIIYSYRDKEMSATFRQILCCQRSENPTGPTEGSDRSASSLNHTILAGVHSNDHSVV
T1 sequence (Q9HBW0 whole entry): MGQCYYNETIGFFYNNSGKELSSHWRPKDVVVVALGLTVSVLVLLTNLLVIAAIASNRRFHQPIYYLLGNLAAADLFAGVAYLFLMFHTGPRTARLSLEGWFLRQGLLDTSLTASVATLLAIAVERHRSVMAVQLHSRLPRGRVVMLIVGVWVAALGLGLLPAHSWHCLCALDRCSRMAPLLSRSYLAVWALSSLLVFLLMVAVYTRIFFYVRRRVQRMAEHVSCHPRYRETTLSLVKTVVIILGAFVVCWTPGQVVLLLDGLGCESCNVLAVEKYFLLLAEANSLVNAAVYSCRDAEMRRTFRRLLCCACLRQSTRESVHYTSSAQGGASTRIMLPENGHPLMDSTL

With `CCCCCCCC(=O)OC[C@H](COP(=O)(O)OP(=O)(O)O)OC(=O)CCCCCCC` [DGPP 8:0, diacylglycerol pyrophosphate], the “effect on LPA-elicited Ca2+ responses” value on human Edg-4 (stable Edg-4) is reported as “unaffected”; at human Edg-4 (transient Edg-4) it was “not effected”; on human Edg-7 (setting [5]), “completely abolished”; with NIH3T3 cells [1] (100 nM LPA in the presence of 10 μM DGPP 8:0) it was “significantly inhibited”. Also, the “inhibition of the Ca2+ responses” value against human Edg-7 (250 nM LPA 18:1 mixed with 500 nM lipid) is on record as 50%; in the test with NIH3T3 cells [1] (100-fold excess over LPA) it was 40%. Moreover, the IC50 (usually the concentration that inhibits the measured activity by half) amounted to 285 ± 28 nM at human Edg-7 (setting [6]); 96 ± 21 nM on PSP24 PLGFR (5 nM LPA 18:1 mixed with increasing DGPP 8:0, read-out: IC50, inhibition of Ca2+-mediated inward Cl- currents elicited by LPA); 11000 ± 680 nM on human Edg-2 (setting [6]). Also, the “mechanism of inhibition (shift of LPA dose response curve)” value on human Edg-7 (constant DGPP 8:0, 250 nM) is reported as “competitive”; at human Edg-2 (constant DGPP 8:0, 3 μM), “competitive”. Besides, the “LPA-elicited Ca2+ response, % of control” value with HEY ovarian cancer cells is reported as 12 % of control. The “effect on S1P-elicited Ca2+ response” value with NIH3T3 cells [1] (100 nM S1P in the presence of 10 μM DGPP 8:0) is “not effected”. The “LPA response with compound applied extracellularly” value on PSP24 PLGFR (5 nM LPA 18:1 and 1 μM DGPP 8:0) is “completely inhibited”. The “mechanism of action (shift of LPA 18:1 dose response curve)” value at PSP24 PLGFR (200 nM DGPP 8:0) was “competitive”. For the same molecule, the “reversibility of inhibition of LPA-induced chloride currents” value on PSP24 PLGFR (after washing the oocyte) was “reversible”. Also, the “LPA response after intracellular injection of compound” value at PSP24 PLGFR (intracellular injection, estimated >300 nM, extracellular 5 nM LPA 18:1) is listed as “elicited a response equal in size to that of the control”. For the same molecule, on human Edg-2 (250 nM LPA 18:1 mixed with 10 μM lipid), the “Ca2+ response, % of control” value was 50 % of control. Also, the “inhibition of LPA-elicited Ca2+ responses” value on human Edg-2 (setting [5]) is “approximately 50%”. Also, the “inhibition of carbachol-elicited responses” value in test [2] was “did not inhibit”. Further, the “inhibition of serotonin-elicited responses” value in test [3] is given as “did not inhibit”. Moreover, in the test on NIH3T3 cells [4] (5 μM LPA 18:1 mixed with 10 μM lipid, 24 hr), the “effect on LPA-induced proliferation” value was “significantly inhibited”. Also, in the test with NIH3T3 cells [4] (10 μM lipid, solvent (BSA) in place of LPA 18:1, 24 hr), the “effect on solvent-treated control cells” value was “had no effect”.

The values above are taken from patent publication US6875757B2, “LPA receptor agonists and antagonists and methods of use” (University of Tennessee Research Foundation, priority 2000, dated 2005).
